Assay results: the NIST ThermoML archive (doi:10.1016/j.jct.2009.11.014)

Details: Liquid; for viscosity: Stony Brook Scientific falling needle HPHTV-100 viscometer; for mass density: vibrating tube

CCn1cc[n+](C)c1.F[B-](F)(F)F [1-ethyl-3-methylimidazolium tetrafluoroborate]
Details | mass density [kg/m3] | viscosity [mPa·s]
282.55 K, 100 kPa | – | 67.8
282.55 K, 700 kPa | – | 69.1
282.55 K, 1700 kPa | – | 70.1
282.55 K, 2700 kPa | – | 71.6
282.55 K, 4400 kPa | – | 72.9
282.55 K, 6100 kPa | – | 74.3
282.55 K, 8200 kPa | – | 75.5
282.55 K, 10300 kPa | – | 76.1
282.55 K, 12900 kPa | – | 77.9
282.55 K, 14100 kPa | – | 79.3
283.15 K, 100 kPa | 1297.04 | –
283.15 K, 2000 kPa | 1297.83 | –
283.15 K, 4000 kPa | 1298.68 | –
283.15 K, 6000 kPa | 1299.52 | –
283.15 K, 8000 kPa | 1300.36 | –
283.15 K, 10000 kPa | 1301.22 | –
283.15 K, 12000 kPa | 1302.03 | –
283.15 K, 14000 kPa | 1302.82 | –
283.15 K, 20000 kPa | 1305.3 | –
283.15 K, 30000 kPa | 1309.33 | –
283.15 K, 40000 kPa | 1313.27 | –
283.15 K, 50000 kPa | 1317.06 | –
283.15 K, 60000 kPa | 1320.84 | –
288.15 K, 100 kPa | 1293.21 | –
288.15 K, 2000 kPa | 1294.02 | –
288.15 K, 4000 kPa | 1294.88 | –
288.15 K, 6000 kPa | 1295.72 | –
288.15 K, 8000 kPa | 1296.59 | –
288.15 K, 10000 kPa | 1297.45 | –
288.15 K, 12000 kPa | 1298.29 | –
288.15 K, 14000 kPa | 1299.08 | –
288.15 K, 20000 kPa | 1301.58 | –
288.15 K, 30000 kPa | 1305.62 | –
288.15 K, 40000 kPa | 1309.54 | –
288.15 K, 50000 kPa | 1313.39 | –
288.15 K, 60000 kPa | 1317.17 | –
293.15 K, 100 kPa | 1289.36 | –
293.15 K, 2000 kPa | 1290.17 | –
293.15 K, 4000 kPa | 1291.05 | –
293.15 K, 6000 kPa | 1291.91 | –
293.15 K, 8000 kPa | 1292.79 | –
293.15 K, 10000 kPa | 1293.63 | –
293.15 K, 12000 kPa | 1294.48 | –
293.15 K, 14000 kPa | 1295.29 | –
293.15 K, 20000 kPa | 1297.8 | –
293.15 K, 30000 kPa | 1301.86 | –
293.15 K, 40000 kPa | 1305.84 | –
293.15 K, 50000 kPa | 1309.69 | –
293.15 K, 60000 kPa | 1313.49 | –
293.75 K, 6300 kPa | – | 46.1
293.75 K, 8200 kPa | – | 47.5
293.75 K, 10100 kPa | – | 48.4
293.75 K, 12400 kPa | – | 49.3
293.85 K, 100 kPa | – | 43.4
293.85 K, 700 kPa | – | 43.7
293.85 K, 1700 kPa | – | 44.1
293.85 K, 2700 kPa | – | 44.4
293.85 K, 4200 kPa | – | 44.9
293.85 K, 14500 kPa | – | 49.7
298.15 K, 100 kPa | 1285.51 | –
298.15 K, 2000 kPa | 1286.33 | –
298.15 K, 4000 kPa | 1287.22 | –
298.15 K, 6000 kPa | 1288.13 | –
298.15 K, 8000 kPa | 1289.02 | –
298.15 K, 10000 kPa | 1289.83 | –
298.15 K, 12000 kPa | 1290.7 | –
298.15 K, 14000 kPa | 1291.53 | –
298.15 K, 20000 kPa | 1294.05 | –
298.15 K, 30000 kPa | 1298.17 | –
298.15 K, 40000 kPa | 1302.18 | –
298.15 K, 50000 kPa | 1306.09 | –
298.15 K, 60000 kPa | 1309.95 | –
303.15 K, 100 kPa | 1281.74 | –
303.15 K, 2000 kPa | 1282.57 | –
303.15 K, 4000 kPa | 1283.44 | –
303.15 K, 6000 kPa | 1284.35 | –
303.15 K, 8000 kPa | 1285.26 | –
303.15 K, 10000 kPa | 1286.08 | –
303.15 K, 12000 kPa | 1287 | –
303.15 K, 14000 kPa | 1287.82 | –
303.15 K, 20000 kPa | 1290.4 | –
303.15 K, 30000 kPa | 1294.54 | –
303.15 K, 40000 kPa | 1298.58 | –
303.15 K, 50000 kPa | 1302.56 | –
303.15 K, 60000 kPa | 1306.43 | –
303.95 K, 10300 kPa | – | 34.2
304.05 K, 120 kPa | – | 30.9
304.05 K, 680 kPa | – | 31.1
304.05 K, 1730 kPa | – | 31.2
304.05 K, 2710 kPa | – | 31.4
304.05 K, 4300 kPa | – | 32.2
304.05 K, 6340 kPa | – | 32.6
304.05 K, 8250 kPa | – | 33.1
304.05 K, 12210 kPa | – | 34.3
304.05 K, 14300 kPa | – | 35.2
308.15 K, 100 kPa | 1277.93 | –
308.15 K, 2000 kPa | 1278.81 | –
308.15 K, 4000 kPa | 1279.69 | –
308.15 K, 6000 kPa | 1280.58 | –
308.15 K, 8000 kPa | 1281.46 | –
308.15 K, 10000 kPa | 1282.35 | –
308.15 K, 12000 kPa | 1283.22 | –
308.15 K, 14000 kPa | 1284.11 | –
308.15 K, 20000 kPa | 1286.68 | –
308.15 K, 30000 kPa | 1290.85 | –
308.15 K, 40000 kPa | 1294.96 | –
308.15 K, 50000 kPa | 1298.92 | –
308.15 K, 60000 kPa | 1302.82 | –
313.15 K, 100 kPa | 1274.17 | –
313.15 K, 2000 kPa | 1275.04 | –
313.15 K, 4000 kPa | 1275.93 | –
313.15 K, 6000 kPa | 1276.8 | –
313.15 K, 8000 kPa | 1277.73 | –
313.15 K, 10000 kPa | 1278.61 | –
313.15 K, 12000 kPa | 1279.51 | –
313.15 K, 14000 kPa | 1280.39 | –
313.15 K, 20000 kPa | 1283.04 | –
313.15 K, 30000 kPa | 1287.29 | –
313.15 K, 40000 kPa | 1291.42 | –
313.15 K, 50000 kPa | 1295.43 | –
313.15 K, 60000 kPa | 1299.37 | –
313.65 K, 10170 kPa | – | 25.7
313.65 K, 12290 kPa | – | 26
313.65 K, 14100 kPa | – | 26.2
313.75 K, 1760 kPa | – | 23.8
313.75 K, 2730 kPa | – | 24.1
313.75 K, 4350 kPa | – | 24.5
313.75 K, 6270 kPa | – | 24.9
313.75 K, 8230 kPa | – | 25.1
313.85 K, 100 kPa | – | 23.3
313.85 K, 700 kPa | – | 23.4
313.85 K, 10300 kPa | – | 25.6
318.15 K, 100 kPa | 1270.39 | –
318.15 K, 2000 kPa | 1271.3 | –
318.15 K, 4000 kPa | 1272.25 | –
318.15 K, 6000 kPa | 1273.14 | –
318.15 K, 8000 kPa | 1274.05 | –
318.15 K, 10000 kPa | 1274.96 | –
318.15 K, 12000 kPa | 1275.87 | –
318.15 K, 14000 kPa | 1276.72 | –
318.15 K, 20000 kPa | 1279.36 | –
318.15 K, 30000 kPa | 1283.7 | –
318.15 K, 40000 kPa | 1287.8 | –
318.15 K, 50000 kPa | 1291.92 | –
318.15 K, 60000 kPa | 1295.92 | –
323.15 K, 100 kPa | 1266.69 | –
323.15 K, 2000 kPa | 1267.58 | –
323.15 K, 4000 kPa | 1268.52 | –
323.15 K, 6000 kPa | 1269.45 | –
323.15 K, 8000 kPa | 1270.37 | –
323.15 K, 10000 kPa | 1271.28 | –
323.15 K, 12000 kPa | 1272.19 | –
323.15 K, 14000 kPa | 1273.08 | –
323.15 K, 20000 kPa | 1275.76 | –
323.15 K, 30000 kPa | 1280.1 | –
323.15 K, 40000 kPa | 1284.32 | –
323.15 K, 50000 kPa | 1288.41 | –
323.15 K, 60000 kPa | 1292.42 | –
323.65 K, 100 kPa | – | 18.4
323.65 K, 700 kPa | – | 18.6
323.65 K, 1700 kPa | – | 18.7
323.75 K, 1200 kPa | – | 18.5
323.75 K, 2300 kPa | – | 18.7
323.75 K, 4200 kPa | – | 18.9
323.75 K, 4500 kPa | – | 18.9
323.75 K, 6100 kPa | – | 19
323.75 K, 6600 kPa | – | 19.4
323.75 K, 8200 kPa | – | 19.3
323.75 K, 10200 kPa | – | 19.7
323.75 K, 12400 kPa | – | 19.9
323.75 K, 14300 kPa | – | 20.1
